Consider five molecules from ChEMBL document CHEMBL1201862, “PubChem BioAssay data set” (2004).

Active and inactive are the calls of the source. Cut-off read from the data, not from the text of the source, for most assays here: actives have a measured IC50 and inactives only a lower limit. Bounds are passed on as bounds.

For one test, the target named is Trypsin (Sus scrofa, UniProt P00761). Briefly: porcine trypsin inhibitors, dose response, selectivity assay for Rce1 protease inhibitor project, biochemical, quenched peptide fluorescence, cherry-pick (AID 488789).
Trypsin, sequence (P00761 whole entry): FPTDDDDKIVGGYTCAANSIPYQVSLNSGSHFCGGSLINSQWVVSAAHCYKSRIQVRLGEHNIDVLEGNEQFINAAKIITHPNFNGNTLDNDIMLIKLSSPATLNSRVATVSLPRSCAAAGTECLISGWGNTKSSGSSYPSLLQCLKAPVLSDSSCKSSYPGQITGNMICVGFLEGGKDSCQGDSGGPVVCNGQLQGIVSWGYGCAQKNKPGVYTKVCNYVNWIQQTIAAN
Test [1] is described as follows: MC4R antagonists, dose response, counter-screen for LGR2 antagonist project, cell-based, plate reader, cherry pick (AID 743444).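 Note: transfected HEK 293 cells stimulated with alpha-MSH peptide; potency of inhibitors of the alpha-MSH evoked signal.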 The test is classed as functional. (A counterscreen serves to expose hits that act by an unwanted route or on another target.)
Test [2] in a line: LGR2 antagonists, dose response, cell-based, HEK293, CRE-luciferase reporter, cherry pick, set 2 (AID 743343).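 Note: transfected cells were stimulated with diluted bursicon conditioned medium after compound addition.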 The test is classed as functional.
In test [3] the target is Polyadenylate-binding protein 1 (Homo sapiens, UniProt P11940). Briefly: PABP inhibition in translation initiation, SAR follow-up (AID 435018). The test is classed as functional.
The target in test [4] is Eukaryotic translation initiation factor 4H (Homo sapiens, UniProt Q15056). Briefly: eIF4H inhibition in translation initiation, SAR follow-up (AID 435011). The test is classed as functional.
Test [5] is described as follows: Counterscreen for IDE inhibitors: Luminescence-based cell-based high throughput dose response assay to identify compounds that are cytotoxic to HEK cells. [Related pubchem assays: 434962 (Primary screen (IDE inhibitors in singlicate)), 449730 (Counterscreen (Cytotoxicity in triplicate)), 435028 (Confirmation (IDE inhibitors in triplicate)) …. The test is classed as functional. Conditions: HEK293.

In a further test the target is T1, Insulin-degrading enzyme (Homo sapiens, UniProt P14735).
T1 sequence (P14735 whole entry): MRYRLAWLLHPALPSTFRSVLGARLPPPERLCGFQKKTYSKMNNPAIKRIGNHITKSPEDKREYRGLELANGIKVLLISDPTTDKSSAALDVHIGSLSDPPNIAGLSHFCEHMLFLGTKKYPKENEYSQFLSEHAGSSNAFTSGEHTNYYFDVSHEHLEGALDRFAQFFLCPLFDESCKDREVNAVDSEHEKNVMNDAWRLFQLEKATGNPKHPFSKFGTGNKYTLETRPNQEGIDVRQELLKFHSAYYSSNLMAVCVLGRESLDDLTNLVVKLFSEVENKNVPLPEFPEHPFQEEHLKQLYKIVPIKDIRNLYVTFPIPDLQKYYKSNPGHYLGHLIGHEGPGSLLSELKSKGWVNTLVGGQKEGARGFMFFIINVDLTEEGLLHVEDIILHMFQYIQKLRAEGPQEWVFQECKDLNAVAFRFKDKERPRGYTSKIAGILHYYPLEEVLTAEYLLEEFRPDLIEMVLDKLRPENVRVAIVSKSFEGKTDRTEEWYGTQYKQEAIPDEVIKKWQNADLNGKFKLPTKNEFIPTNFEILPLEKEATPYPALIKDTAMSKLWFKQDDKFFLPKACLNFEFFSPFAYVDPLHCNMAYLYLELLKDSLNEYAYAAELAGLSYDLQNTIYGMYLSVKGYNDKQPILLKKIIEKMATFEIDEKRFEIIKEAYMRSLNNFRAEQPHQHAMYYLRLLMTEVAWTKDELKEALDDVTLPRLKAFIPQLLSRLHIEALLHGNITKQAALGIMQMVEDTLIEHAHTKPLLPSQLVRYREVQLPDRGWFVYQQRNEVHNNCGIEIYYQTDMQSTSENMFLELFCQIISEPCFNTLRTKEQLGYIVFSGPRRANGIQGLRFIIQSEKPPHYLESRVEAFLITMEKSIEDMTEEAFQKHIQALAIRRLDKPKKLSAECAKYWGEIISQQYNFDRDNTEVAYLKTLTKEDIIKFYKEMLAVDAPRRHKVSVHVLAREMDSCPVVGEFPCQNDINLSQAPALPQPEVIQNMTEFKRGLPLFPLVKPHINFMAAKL
Briefly: Dose Response: Fluorescence polarization-based cell-based high throughput dose response assay for inhibitors of insulin-degrading enzyme (IDE). [Related pubchem assays: 434962 (Primary screen (IDE inhibitors in singlicate)), 449730 (Counterscreen (Cytotoxicity in triplicate)), 435028 (Confirmation (IDE inhibitors in triplicate)), 434984 (Summary …. The class given is functional.

Test [6] has as its target T2, SUMO-activating enzyme (Homo sapiens, UniProt Q9UBT2). Briefly: inhibitors of in vitro SUMOylation cascade, primary screen, biochemical, HTRF, uHTS (AID 2006). The test is classed as protein-complex assay.
Test [7] deals with T2, SUMO-activating enzyme. Briefly: SUMOylation inhibitor hit validation, confirmation, SUMOylation inhibitor project, biochemical, AlphaScreen (AID 2018). The class given is functional.
For test [8], the target named is 26S proteasome non-ATPase regulatory subunit 14 (Homo sapiens, UniProt O00487). Briefly: inhibition of proteasome subunit RPN11 – biochemical, fluorescence polarization, uHTS hits, confirmation (AID 602368). The class given is functional. (Polarisation of emitted light reports the rotation of a fluorescent probe.)
26S proteasome non-ATPase regulatory subunit 14, sequence (O00487 whole entry): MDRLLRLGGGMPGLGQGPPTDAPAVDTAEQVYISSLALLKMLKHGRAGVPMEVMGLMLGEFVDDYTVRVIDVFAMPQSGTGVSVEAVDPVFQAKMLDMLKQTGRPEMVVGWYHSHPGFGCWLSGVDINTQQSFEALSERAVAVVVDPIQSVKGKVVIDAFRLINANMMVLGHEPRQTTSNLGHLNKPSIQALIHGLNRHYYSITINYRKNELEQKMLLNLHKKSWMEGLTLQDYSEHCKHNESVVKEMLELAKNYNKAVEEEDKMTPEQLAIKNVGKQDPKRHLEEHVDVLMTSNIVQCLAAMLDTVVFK
Another test has as its target Prothrombin (Bos taurus, UniProt P00735). Briefly: thrombin inhibition, dose response, biochemical, fluorescence polarization, uHTS hits (AID 602369). The class given is functional.
Test [9] addresses 72 kDa type IV collagenase (Homo sapiens, UniProt P08253). Briefly: Dose Response validation of uHTS RPN11 inhibitor hits using a MMP-2 Fluorescence assay. The class given is functional.
In test [10] the target is T3, Carboxy-terminal domain RNA polymerase II polypeptide A small phosphatase 1 (Homo sapiens, UniProt Q9GZU7).
T3 sequence (Q9GZU7 whole entry): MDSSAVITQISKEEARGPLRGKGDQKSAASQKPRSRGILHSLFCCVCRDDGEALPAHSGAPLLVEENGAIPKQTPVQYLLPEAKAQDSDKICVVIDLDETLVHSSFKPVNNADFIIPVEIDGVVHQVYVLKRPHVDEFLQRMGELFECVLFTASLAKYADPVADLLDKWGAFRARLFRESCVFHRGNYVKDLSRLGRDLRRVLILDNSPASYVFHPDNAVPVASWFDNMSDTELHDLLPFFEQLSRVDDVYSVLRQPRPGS
Briefly: inhibitors of CTDSP1, concentration-response testing, biochemical assay, absorbance-based, actives from ultra-high-throughput screening (AID 540297). The class given is functional.

The target of test [11] is T4, Voltage-gated N-type calcium channel alpha-1B subunit/Amyloid beta A4 precursor protein-binding family A member 1 (Homo sapiens, UniProt Q00975+Q02410). The test is classed as protein assay.
T4 sequence (Q00975 whole entry): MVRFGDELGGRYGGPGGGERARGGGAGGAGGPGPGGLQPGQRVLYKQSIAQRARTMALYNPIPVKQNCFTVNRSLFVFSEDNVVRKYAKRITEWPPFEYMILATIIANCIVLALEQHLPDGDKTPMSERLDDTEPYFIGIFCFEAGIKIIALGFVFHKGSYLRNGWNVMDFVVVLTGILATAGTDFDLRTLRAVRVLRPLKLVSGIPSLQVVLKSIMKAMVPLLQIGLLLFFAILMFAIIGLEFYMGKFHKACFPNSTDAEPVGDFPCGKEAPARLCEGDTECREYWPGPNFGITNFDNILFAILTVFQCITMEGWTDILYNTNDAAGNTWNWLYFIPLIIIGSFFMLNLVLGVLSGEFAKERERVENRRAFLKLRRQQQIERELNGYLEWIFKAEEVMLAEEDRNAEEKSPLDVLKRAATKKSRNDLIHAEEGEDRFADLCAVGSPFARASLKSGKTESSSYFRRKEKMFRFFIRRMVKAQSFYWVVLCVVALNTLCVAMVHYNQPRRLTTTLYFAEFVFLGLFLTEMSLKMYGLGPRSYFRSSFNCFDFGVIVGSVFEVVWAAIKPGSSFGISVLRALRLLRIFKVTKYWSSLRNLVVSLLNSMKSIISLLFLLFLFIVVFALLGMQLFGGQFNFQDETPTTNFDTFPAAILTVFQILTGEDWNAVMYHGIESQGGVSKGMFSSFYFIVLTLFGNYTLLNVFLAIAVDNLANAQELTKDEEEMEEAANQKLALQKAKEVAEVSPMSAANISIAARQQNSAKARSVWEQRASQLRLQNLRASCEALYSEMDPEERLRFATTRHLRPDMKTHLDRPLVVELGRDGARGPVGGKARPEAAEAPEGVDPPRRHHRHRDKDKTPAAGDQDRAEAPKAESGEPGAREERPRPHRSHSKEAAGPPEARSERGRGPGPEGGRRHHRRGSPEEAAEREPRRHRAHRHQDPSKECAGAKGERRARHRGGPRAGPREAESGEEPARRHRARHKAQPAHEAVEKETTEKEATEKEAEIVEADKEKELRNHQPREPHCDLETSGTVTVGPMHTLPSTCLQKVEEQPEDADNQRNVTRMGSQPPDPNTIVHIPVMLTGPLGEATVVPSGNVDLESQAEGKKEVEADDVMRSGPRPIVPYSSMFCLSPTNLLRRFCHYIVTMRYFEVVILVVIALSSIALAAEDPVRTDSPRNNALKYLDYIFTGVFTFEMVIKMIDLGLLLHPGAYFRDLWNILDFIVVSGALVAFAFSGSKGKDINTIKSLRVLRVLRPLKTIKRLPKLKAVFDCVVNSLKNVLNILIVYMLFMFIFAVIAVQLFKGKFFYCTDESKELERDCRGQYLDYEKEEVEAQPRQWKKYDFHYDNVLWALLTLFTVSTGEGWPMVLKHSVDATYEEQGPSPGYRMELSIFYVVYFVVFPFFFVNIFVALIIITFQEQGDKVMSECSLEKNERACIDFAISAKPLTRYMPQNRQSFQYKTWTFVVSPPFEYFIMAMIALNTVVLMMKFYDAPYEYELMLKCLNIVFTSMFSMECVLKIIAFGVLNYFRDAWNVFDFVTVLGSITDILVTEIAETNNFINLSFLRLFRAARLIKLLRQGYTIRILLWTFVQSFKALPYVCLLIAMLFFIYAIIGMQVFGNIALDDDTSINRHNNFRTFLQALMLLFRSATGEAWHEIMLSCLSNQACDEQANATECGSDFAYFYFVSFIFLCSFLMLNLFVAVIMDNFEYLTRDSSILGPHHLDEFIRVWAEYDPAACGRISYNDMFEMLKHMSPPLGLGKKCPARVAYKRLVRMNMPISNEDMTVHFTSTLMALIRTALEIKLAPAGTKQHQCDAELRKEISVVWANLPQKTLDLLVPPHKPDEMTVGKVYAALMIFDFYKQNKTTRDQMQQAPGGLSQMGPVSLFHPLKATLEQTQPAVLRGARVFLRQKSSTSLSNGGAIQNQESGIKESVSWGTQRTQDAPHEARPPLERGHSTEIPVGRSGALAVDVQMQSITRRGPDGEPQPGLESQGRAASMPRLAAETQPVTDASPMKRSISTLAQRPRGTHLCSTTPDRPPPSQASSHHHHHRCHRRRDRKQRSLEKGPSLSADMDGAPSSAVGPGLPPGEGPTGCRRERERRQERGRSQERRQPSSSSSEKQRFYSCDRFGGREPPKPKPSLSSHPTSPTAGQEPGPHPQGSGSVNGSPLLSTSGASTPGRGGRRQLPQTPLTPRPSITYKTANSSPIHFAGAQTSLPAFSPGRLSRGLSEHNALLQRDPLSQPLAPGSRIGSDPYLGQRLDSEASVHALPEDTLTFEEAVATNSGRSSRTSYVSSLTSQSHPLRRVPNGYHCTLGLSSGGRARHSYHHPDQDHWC
T4 sequence (Q02410 whole entry): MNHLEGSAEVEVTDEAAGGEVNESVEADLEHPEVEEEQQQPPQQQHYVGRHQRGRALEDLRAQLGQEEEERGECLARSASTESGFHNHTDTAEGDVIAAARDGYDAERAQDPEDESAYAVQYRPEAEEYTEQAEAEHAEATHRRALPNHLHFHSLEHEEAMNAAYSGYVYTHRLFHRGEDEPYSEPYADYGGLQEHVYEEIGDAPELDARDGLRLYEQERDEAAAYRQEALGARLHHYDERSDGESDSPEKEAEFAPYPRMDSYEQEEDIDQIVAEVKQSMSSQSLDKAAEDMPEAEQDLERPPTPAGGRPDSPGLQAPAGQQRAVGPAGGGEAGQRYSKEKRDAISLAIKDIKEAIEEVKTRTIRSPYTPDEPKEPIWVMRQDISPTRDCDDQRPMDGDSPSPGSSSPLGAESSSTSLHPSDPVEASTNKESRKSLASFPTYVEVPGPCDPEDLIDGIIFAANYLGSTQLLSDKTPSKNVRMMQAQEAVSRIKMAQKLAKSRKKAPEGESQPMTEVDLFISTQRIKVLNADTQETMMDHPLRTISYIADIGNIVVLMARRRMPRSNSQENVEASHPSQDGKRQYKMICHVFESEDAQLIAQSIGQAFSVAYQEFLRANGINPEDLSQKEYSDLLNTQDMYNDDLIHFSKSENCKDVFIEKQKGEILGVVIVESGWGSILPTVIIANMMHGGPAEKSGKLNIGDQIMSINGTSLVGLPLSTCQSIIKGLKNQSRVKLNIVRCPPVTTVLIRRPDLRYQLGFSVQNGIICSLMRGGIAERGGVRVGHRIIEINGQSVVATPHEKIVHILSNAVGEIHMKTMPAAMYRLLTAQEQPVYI
Test [12] addresses T4, Voltage-gated N-type calcium channel alpha-1B subunit/Amyloid beta A4 precursor protein-binding family A member 1. The test is classed as protein assay. The source holds these as a separate data set.

T2 sequence (Q9UBE0 whole entry): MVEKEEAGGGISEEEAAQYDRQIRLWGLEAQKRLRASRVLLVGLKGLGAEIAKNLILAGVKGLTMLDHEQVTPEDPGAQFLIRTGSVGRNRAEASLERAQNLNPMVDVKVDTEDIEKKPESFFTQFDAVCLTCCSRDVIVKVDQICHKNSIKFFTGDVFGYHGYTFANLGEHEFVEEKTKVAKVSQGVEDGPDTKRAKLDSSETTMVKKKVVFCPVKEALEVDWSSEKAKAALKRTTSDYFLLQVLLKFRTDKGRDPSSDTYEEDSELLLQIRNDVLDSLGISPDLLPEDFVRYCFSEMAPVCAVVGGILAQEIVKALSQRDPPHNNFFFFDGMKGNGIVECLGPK
T2 sequence (Q9UBT2 whole entry): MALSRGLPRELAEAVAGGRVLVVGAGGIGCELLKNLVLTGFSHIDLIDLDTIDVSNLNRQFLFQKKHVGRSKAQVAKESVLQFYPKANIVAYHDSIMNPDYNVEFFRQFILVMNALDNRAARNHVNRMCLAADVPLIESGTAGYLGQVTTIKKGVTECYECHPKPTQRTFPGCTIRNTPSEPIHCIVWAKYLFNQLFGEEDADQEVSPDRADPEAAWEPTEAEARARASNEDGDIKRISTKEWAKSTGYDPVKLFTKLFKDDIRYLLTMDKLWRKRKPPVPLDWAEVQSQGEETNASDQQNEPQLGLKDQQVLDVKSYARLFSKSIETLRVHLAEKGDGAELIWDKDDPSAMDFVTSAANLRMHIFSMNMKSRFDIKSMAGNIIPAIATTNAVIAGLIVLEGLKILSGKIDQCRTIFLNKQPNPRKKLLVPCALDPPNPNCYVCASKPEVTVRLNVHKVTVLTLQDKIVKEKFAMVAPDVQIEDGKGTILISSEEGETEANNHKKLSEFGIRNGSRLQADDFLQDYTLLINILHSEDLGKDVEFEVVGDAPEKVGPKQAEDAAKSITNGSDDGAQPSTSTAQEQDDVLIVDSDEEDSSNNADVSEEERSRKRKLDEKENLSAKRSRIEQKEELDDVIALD

Consider `c1ccc(-n2cnnc2SCc2cn3cccnc3n2)cc1`, for which the AC50 at Trypsin is 9.66 µM (active); in [1], 19.4 µM (active); in [2], 30.1 µM (active).
Consider `CN(C(=O)C1CCN(C(=O)c2cccs2)CC1)c1ccccc1`, for which the IC50 in test [3] and in [4] was > 100 µM (inactive) throughout.
For `Cc1cccc(C(=O)Nc2ccnc(-c3ccncc3)n2)c1`, the IC50 in [5] is 22.9 µM (not active); at Insulin-degrading enzyme, 7.39 µM (active).
Regarding `O=C(O)c1ccc2c(c1)C1C(Cl)C(Sc3ccccc3[N+](=O)[O-])CC1C(c1cccc([N+](=O)[O-])c1)N2` (stereo unspecified), the values for the IC50 at SUMO-activating enzyme [6] and on SUMO-activating enzyme [7] were 23.6 µM (active) and 2.26 µM (active), respectively.
With `NS(=O)(=O)c1ccc(NC(=O)c2ccc(-c3ccccc3)cc2)cc1`, the IC50 in [8] is 8.12 µM (active); on Prothrombin, 51.4 µM (active); in [9], > 100 µM (inactive); in test [10], 4.56 µM (active); at SUMO-activating enzyme [7], 13.8 µM (active); in test [11], > 50 µM (inactive). Further, the 50% inhibitory concentration (IC50) in test [12] is 4.83 µM (active).

One may read the AC50 as the concentration at which the activity in the assay is half-maximal. Broadly, the IC50 is the midpoint of a concentration-inhibition curve.
